How the values were obtained:
[1] = tested on: C57BL6/J/129S5 hybrid male mice; test: Mouse study: testes size and histology after daily i.p. JQ1
Procedure: (§1) The subsequent mixture was injected intraperitoneal into male mice at 1% of the body weight of the mouse (final amount is 50 mg/kg/day). The control was DMSO dissolved 1:10 in (2-Hydroxypropyl)-β-cyclodextrin and injected similarly. […] These studies were approved by the Administrative Committee on Laboratory Animal Care at Baylor College of Medicine, and all experiments were conducted in accordance with the NIH guide for the Care and Use of Laboratory Animals.

[2] = tested on: C57BL6/J/129S5 hybrid male mice; test: Male fertility, fertilization and embryo developmental potential
Procedure: Oocytes from these females were collected from their oviductal ampulla and cultured for 2 days to determine their developmental potential post-mating (FIG. 6B).
as §1

BRDT(1) = BRDT(1) (Homo sapiens, UniProt Q58F21); settings: alpha-screen, H4Kac4 competition
Procedure: The N-terminal domain of human BRDT was cloned, expressed in E-Coli and purified as previously described (Filippakopoulos et al.).
Assays were performed with minor modifications from the manufacturer's protocol (PerkinElmer, USA). All reagents were diluted in 50 mM HEPES, 150 mM NaCl, 0.1% w/v BSA, 0.01% w/v Tween20, pH 7.5 and allowed to equilibrate to room temperature prior to addition to plates. After addition of Alpha beads to master solutions all subsequent steps were performed in low light conditions. […] Addition to wells was performed with either a multichannel pipet (for optimization experiments) or a Biotek EL406 liquid handler. After a 1 minute 1000 rpm spin-down, 100 nl of compounds from stock plates were added by pin transfer using a Janus Workstation (PerkinElmer, USA). The streptavidin-coated donor beads (25 μg/ml final) were added as with previous solution in a 2×, 10 μl volume. Following this addition, the plates were sealed with foil to block light exposure and to prevent evaporation. The plates were spun down again at 1000 rpm for 1 minute.

SMILES | Leydig cells of the testes, histology ([1]; 50 mg/kg/day i.p.) | gross testes size compared to control males ([1]; 50 mg/kg/day i.p.) | testosterone-responsive seminal vesicles, gross appearance ([1]; 50 mg/kg/day i.p.) | testis histology ([1]; 50 mg/kg/day i.p., 6 weeks treatment) | number of spermatids positive for transition protein 1 (TNP1) ([1]; immunohistochemistry of testes) | crossing of the blood:testis boundary ([1]; inferred from effect on seminiferous tubule compartment) | mating behavior (copulation plugs) ([2]; after 5 weeks of treatment, superovulated females) | effect on impregnation of females ([2]; males treated 3 weeks, housed with 2 females each, 3 more weeks of treatment, n=3) | treated adult male mice that sired two litters after cessation ([2]; within the first month following cessation of JQ1) | activity for BRDT(1) (BRDT(1))
Cc1sc2c(c1C)C(c1ccc(Cl)cc1)=NC(CC(=O)OC(C)(C)C)c1nnc(C)n1-2 (racemic) [JQ1, tert-Butyl 2-(4-(4-chlorophenyl)-2,3,9-trimethyl-6H-thieno[3,2-f][1,2,4]triazolo[4,3-a][1,4]diazepin-6-yl)acetate] | histologically normal | grossly smaller testes | grossly normal | seminiferous tubule degeneration | reduced | capable of effectively crossing the blood:testis boundary | did not alter mating behavior | contraceptive effect | 6 of 6 | –
Cc1sc2c(c1C)C(c1ccc(Cl)cc1)=N[C@H](CC(=O)OC(C)(C)C)c1nnc(C)n1-2 (racemic) [(−)-JQ1] | – | – | – | – | – | – | – | – | – | inactive

Source: patent US9301962B2, “Male contraceptive compositions and methods of use” (Baylor College of Medicine, priority 2010, dated 2016)
